Test results from patent publication US12319663B2, “Alkene-containing amide compound and application thereof” (SHENYANG SINOCHEM AGROCHEMICALS R&D CO., LTD., priority 2019, dated 2025).

Experiments:
Type in all cases: in vivo
barnyard grass = test: Herbicidal activity, post-emergence stem and leaf spray, greenhouse: barnyard grass control
Protocol: (§1) Seeds of broadleaf weeds (zinnia and piemarker) or grassy weeds (green bristlegrass and barnyard grass) are respectively sown in a paper cup having a diameter of 7 cm and containing nutrient soil; after sowing, the seeds are covered with 1 cm of soil; the soil is pressed and watered, and then the seeds are cultivated in a greenhouse according to a conventional method; and stems and leaves are sprayed after 2-3 leaf stage of the weeds.
(§2) After the original medicinal acetone was dissolved, the test requires to use 1% of Tween 80 to stand in running water to prepare the solution to be tested with a required concentration. According to the design dose of the test, spray treatment was carried out on a track-type crop sprayer (designed and produced by British Engineer Research Ltd.) (spray pressure is 1.95 kg/cm^2, spray volume is 50 L/hm^2 and track speed is 1.48 km/h). The test was repeated for three times. The test material was treated and then placed in an operation hall. The medicinal liquid was naturally dried in the shade, and then was placed in a greenhouse and managed according to the conventional method, The response of the weeds to the drug was observed and recorded, After treatment, the control effects of the test drug on the weeds were visually inspected regularly, expressed by 0-100%. “0” represents no control effect and “100%” represents complete killing.
According to the above test method, part of the compounds of the formula I and KC are selected for the activity test of controlling the barnyard grass.

green bristlegrass = test: Herbicidal activity, post-emergence stem and leaf spray, greenhouse: green bristlegrass control
Protocol: as §1, §2
According to the above test method, part of the compounds of the formula I and KC are selected for the activity test of controlling the green bristlegrass.

zinnia = test: Herbicidal activity, post-emergence stem and leaf spray, greenhouse: zinnia control; conditions: visual, 0 = no control effect, 100% = complete killing
Protocol: as §1, §2
According to the above test method, part of the compounds of the formula I and KC are selected for activity test of controlling the zinnia.

piemarker = test: Herbicidal activity, post-emergence stem and leaf spray, greenhouse: piemarker control
Protocol: as §1, §2
According to the above test method, part of the compounds of the formula I and KC are selected for activity test of controlling the piemarker. […]

[1] = dose 37.5 g a.i./hm2, post-emergence stem and leaf spray
[2] = dose 150 g a.i./hm2, post-emergence stem and leaf spray
[3] = dose 600 g a.i./hm2, post-emergence stem and leaf spray

| Structure (SMILES) | Barnyard grass control activity (after emergence, control effect %) (barnyard grass; [1]) [%] | Barnyard grass control activity (after emergence, control effect %) (barnyard grass; [2]) [%] | Barnyard grass control activity (after emergence, control effect %) (barnyard grass; [3]) [%] | Green bristlegrass control activity (after emergence, control effect %) (green bristlegrass; [1]) [%] | Green bristlegrass control activity (after emergence, control effect %) (green bristlegrass; [2]) [%] | Green bristlegrass control activity (after emergence, control effect %) (green bristlegrass; [3]) [%] | Zinnia control activity (after emergence, control effect %) (zinnia; dose 37.5 g a.i./hm^2) [%] | Zinnia control activity (after emergence, control effect %) (zinnia; dose 150 g a.i./hm^2) [%] | Zinnia control activity (after emergence, control effect %) (zinnia; dose 600 g a.i./hm^2) [%] | Piemarker control activity (after emergence, control effect %) (piemarker; [1]) [%] | Piemarker control activity (after emergence, control effect %) (piemarker; [2]) [%] | Piemarker control activity (after emergence, control effect %) (piemarker; [3]) [%] |
| --- | --- | --- | --- | --- | --- | --- | --- | --- | --- | --- | --- | --- |
| Cn1nnnc1N(C(=O)C1=CCCCC1)C(=O)c1ccc(C(F)(F)F)cc1S(C)(=O)=O [Compound 2-265] | 95 | 95 | 95 | 80 | 90 | 95 | 95 | 100 | 100 | 90 | 95 | 95 |
| Cn1nnnc1N(C(=O)C1=CCCC1)C(=O)c1ccc(C(F)(F)F)cc1S(C)(=O)=O [Compound 2-266] | 85 | 90 | 95 | 90 | 95 | 100 | 95 | 98 | 100 | 90 | 95 | 100 |
| Cn1nnnc1N(C(=O)c1ccccc1)C(=O)c1ccc(C(F)(F)F)cc1S(C)(=O)=O [KC, reference compound] | 50 | 65 |  | 45 | 70 |  | 65 | 90 |  | 60 | 85 |  |
